These results are taken from patent US20160102074A1, “SUBSTITUTED AMIDE COMPOUNDS” (PFIZER INC., priority 2014, published 2016).

pIC50: −log10 of the molar value.

One experiment concerns PCSK9. Nature of the experiment: PCSK9 lowering in sandwich culture human hepatocytes (SCHH). It is filed as cell-based. The following applies: sandwich culture primary cryopreserved human hepatocytes, secreted PCSK9 by AlphaLISA. As for the experimental part:
PCSK9 Lowering and Compound Concentration Determination in Sandwich Culture Human Hepatocytes (SCHH)
Test compound in-vitro pharmacokinetic and pharmacodynamic relationships were measured in sandwich culture primary cryopreserved human hepatocytes. Within these studies SCHH cells (BD Biosciences IVT) were thawed at 37° C. then placed on ice, after which the cells were added to pre-warmed (37° C.) In VitroGRO-HT media and centrifuged at 50×g for 3 min. The cell pellet was re-suspended to 0.8×10^6 cells/mL in InVitroGRO-CP plating medium and cell viability determined by trypan blue exclusion. On day 1, hepatocyte suspensions were plated in BioCoat 96-well plates at a density of 80000 cells/well in a volume of 0.1 mL/well. After 18 to 24 hours of incubation at 37° C. in 5% CO2, cells were overlaid with ice-cold 0.25 mg/mL BD Matrigel Matrix Phenol Red-Free in incubation medium at 0.1 mL/well. Cultures were maintained at 37° C. in 5% CO2 in InVitroGRO-HI (FBS-free media), which was replaced every 24 hours and time course treatments were initiated on day 5. […] Percent PCSK9 lowering versus vehicle treated cells was then determined for each time point and the maximum response (and the corresponding concentration and time when observed) is reported under the Sandwich Culture Hepatocyte (SCHH) PCSK9 lowering summarized in Table 3. […]
On the technique in general: Bead proximity is the source of the signal in Alpha formats.

In the next experiment the test system is human PCSK9. The experiment is described as follows: In vivo plasma PCSK9 lowering in humanized PCSK9 mice. Details: species or system mouse. The following applies: hPCSK9 mice, single oral dose 500 mg/kg, relative to hour zero (baseline) levels. The source says:
A humanized PCSK9 mouse model was developed to assess compound activity in vivo. This model was established by first generating a transgenic mouse containing the full-length human PCSK9 gene and its promoter through pronuclear injection of the bacterial artificial chromosome (BAC), RP11-627J9, into C57B16J mice. Mice containing the human PCSK9 transgene were then bred with PCSK9 knockout mice on a 129/C57BL6J background (Rashid S, Curtis D E, Garuti R, et al. Decreased plasma cholesterol and hypersensitivity to statins in mice lacking Pcsk9. Proc Natl Acad Sci USA 2005; 102(15):5374-9). […] For example, ethyl (S)-1-{5-[4-(4-{(3-chloropyridin-2-yl)[(3R)-piperidin-3-yl]carbamoyl}-2-fluorophenyl)-1-methyl-1H-pyrazol-5-yl]-1H-tetrazol-1-yl}ethyl carbonate (the parent molecule) was dosed orally and plasma and liver concentrations were measured for the metabolite, N-(3-chloropyridin-2-yl)-3-fluoro-4-[1-methyl-5-(2H-tetrazol-5-yl)-1H-pyrazol-4-yl]-N-[(3R)-piperidin-3-yl]benzamide. Quantitation of human plasma PCSK9 was performed using a commercially available sandwich ELISA kit (R&D Systems, DPC900) incorporating a horse radish peroxidase (HRP) conjugated secondary antibody (R&D Systems, DPC900) to generate a colorimetric signal proportional to PCSK9 concentration per the manufacturer's protocol. […]

A word on the pIC50: it is −log10 of the IC50, conventionally taken in molar units. Low values mean a high IC50, high ones a low IC50. In turn, `Cn1ncc(-c2ccc(C(=O)N(c3ncccc3Cl)[C@@H]3CCCNC3)cc2F)c1-c1nn[nH]n1` [Example 3, N-(3-chloropyridin-2-yl)-3-fluoro-4-[1-methyl-5-(2H-tetrazol-5-yl)-1H-pyrazol-4-yl]-N-[(3R)-piperidin-3-yl]benzamide] had a pIC50 with PCSK9 of 4.20.
As for `CCOC(=O)O[C@@H](C)n1nnnc1-c1c(-c2ccc(C(=O)N(c3ncccc3Cl)[C@@H]3CCCNC3)cc2)cnn1C` [Example 6, ethyl (S)-1-{5-[1-methyl-4-(4-{(3-chloropyridin-2-yl)[(3R)-piperidin-3-yl]carbamoyl}phenyl)-1H-pyrazol-5-yl]-1H-tetrazol-1-yl}ethyl carbonate], the “Percent Plasma PCSK9 Lowering at 4 hours” value with human PCSK9 amounted to 71%.
Still for that read-out and setting: with `CCOC(=O)O[C@@H](C)n1nnnc1-c1c(-c2ccc(C(=O)N(c3ncccc3Cl)[C@@H]3CCCNC3)cc2F)cnn1C` [Example 7, ethyl (S)-1-{5-[4-(4-{(3-chloropyridin-2-yl)[(3R)-piperidin-3-yl]carbamoyl}-2-fluorophenyl)-1-methyl-1H-pyrazol-5-yl]-1H-tetrazol-1-yl}ethyl carbonate] the figure was 72%.
